BindingDB's records for doi:10.1016/j.bmcl.2004.09.023 (Dupont Pharmaceuticals, 2004)

Tests used:
[1] = molecular target: Cyclin-dependent kinase 2/G1/S-specific cyclin-E1 (Homo sapiens, UniProt P24941); assay: Kinase Inhibition Assay
Method: (§1) The enzyme was assayed with substrate GST-Rb in the presence of 50 mM ATP/[gamma-32P] ATP, and capturing the 32-P labeled reaction products on GSH-Sepharose beads. […] Use of 32P-labeled ATP allows this transfer to be monitored by scintillation counting.

[2] = molecular target: Cyclin-dependent kinase 4/G1/S-specific cyclin-D1 (Homo sapiens, UniProt P11802); assay: Kinase Inhibition Assay
Cyclin-dependent kinase 4/G1/S-specific cyclin-D1, sequence (P11802 whole entry): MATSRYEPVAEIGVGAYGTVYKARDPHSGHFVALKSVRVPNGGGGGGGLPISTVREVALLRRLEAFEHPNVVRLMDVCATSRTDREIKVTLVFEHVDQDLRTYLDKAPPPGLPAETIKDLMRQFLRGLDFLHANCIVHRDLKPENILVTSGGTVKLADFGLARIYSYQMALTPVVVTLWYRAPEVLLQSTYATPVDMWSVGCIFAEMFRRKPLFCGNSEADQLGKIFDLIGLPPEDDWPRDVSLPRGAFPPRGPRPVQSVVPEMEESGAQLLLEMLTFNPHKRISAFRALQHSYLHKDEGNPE
Cyclin-dependent kinase 4/G1/S-specific cyclin-D1, sequence (P24385 whole entry, further chain): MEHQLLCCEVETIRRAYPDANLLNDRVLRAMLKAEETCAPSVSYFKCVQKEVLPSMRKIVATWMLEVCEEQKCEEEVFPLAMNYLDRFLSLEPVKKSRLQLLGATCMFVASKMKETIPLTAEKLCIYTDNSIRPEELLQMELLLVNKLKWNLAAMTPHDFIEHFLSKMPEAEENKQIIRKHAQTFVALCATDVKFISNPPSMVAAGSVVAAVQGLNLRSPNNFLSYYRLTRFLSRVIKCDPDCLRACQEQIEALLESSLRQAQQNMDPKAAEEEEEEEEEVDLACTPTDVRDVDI
Method: as §1

Compound | IC50 [1] | IC50 [2] | IC50 ([1]; pH 7.6, 22 °C)
COc1ccc(-c2[nH]nc3c2C(=O)c2c(NC(=O)NNC(=O)c4ccc(O)cc4O)cccc2-3)cc1 [2,4-dihydroxy-N-({[3-(4-methoxyphenyl)-4-oxo-2H,4H-indeno[1,2-c]pyrazol-5-yl]carbamoyl}amino)benzamide] | 16 nM | 12 nM | 
COc1ccc(-c2[nH]nc3c2C(=O)c2c(NC(=O)NNC(=O)c4cc(Cl)ccc4Cl)cccc2-3)cc1 [2,5-dichloro-N-({[3-(4-methoxyphenyl)-4-oxo-2H,4H-indeno[1,2-c]pyrazol-5-yl]carbamoyl}amino)benzamide] |  | 28 nM | 36 nM
COc1ccc(-c2[nH]nc3c2C(=O)c2c(NC(=O)NNC(=O)c4cc(N)cc(N)c4)cccc2-3)cc1 [3,5-diamino-N-({[3-(4-methoxyphenyl)-4-oxo-2H,4H-indeno[1,2-c]pyrazol-5-yl]carbamoyl}amino)benzamide] |  | 16 nM | 39 nM
COc1ccc(-c2[nH]nc3c2C(=O)c2c(NC(=O)NNC(=O)c4cc(OC)cc(OC)c4)cccc2-3)cc1 [3,5-dimethoxy-N-({[3-(4-methoxyphenyl)-4-oxo-2H,4H-indeno[1,2-c]pyrazol-5-yl]carbamoyl}amino)benzamide] |  | 24 nM | 
COc1ccc(-c2[nH]nc3c2C(=O)c2c(NC(=O)NNC(=O)CCc4ccc(O)cc4)cccc2-3)cc1 [3-(4-hydroxyphenyl)-N-({[3-(4-methoxyphenyl)-4-oxo-2H,4H-indeno[1,2-c]pyrazol-5-yl]carbamoyl}amino)propanamide] |  |  | 13 nM
COc1ccc(-c2[nH]nc3c2C(=O)c2c(NC(=O)NNC(=O)Nc4ccccc4)cccc2-3)cc1 [3-[3-(4-methoxyphenyl)-4-oxo-2H,4H-indeno[1,2-c]pyrazol-5-yl]-1-[(phenylcarbamoyl)amino]urea] |  |  | 19 nM
COc1ccc(-c2[nH]nc3c2C(=O)c2c(NC(=O)NNC(=O)C(C)C)cccc2-3)cc1 [N-({[3-(4-methoxyphenyl)-4-oxo-2H,4H-indeno[1,2-c]pyrazol-5-yl]carbamoyl}amino)-2-methylpropanamide] |  |  | 19 nM
COc1ccc(-c2[nH]nc3c2C(=O)c2c(NC(=O)NNC(=O)Cc4ccccc4)cccc2-3)cc1 [N-({[3-(4-methoxyphenyl)-4-oxo-2H,4H-indeno[1,2-c]pyrazol-5-yl]carbamoyl}amino)-2-phenylacetamide] | 33 nM | 27 nM | 
COc1ccc(-c2[nH]nc3c2C(=O)c2c(NC(=O)NNC(C)=O)cccc2-3)cc1 [N-({[3-(4-methoxyphenyl)-4-oxo-2H,4H-indeno[1,2-c]pyrazol-5-yl]carbamoyl}amino)acetamide] | 37 nM | 57 nM | 
COc1ccc(-c2[nH]nc3c2C(=O)c2c(NC(=O)NNC(=O)C(N)=O)cccc2-3)cc1 [N-({[3-(4-methoxyphenyl)-4-oxo-2H,4H-indeno[1,2-c]pyrazol-5-yl]carbamoyl}amino)ethanediamide] | 97 nM |  | 
COc1ccc(-c2[nH]nc3c2C(=O)c2c(NC(=O)NNC(=O)c4cccc5ccccc45)cccc2-3)cc1 [N-({[3-(4-methoxyphenyl)-4-oxo-2H,4H-indeno[1,2-c]pyrazol-5-yl]carbamoyl}amino)naphthalene-1-carboxamide] |  |  | 53 nM
COC(=O)NNC(=O)Nc1cccc2c1C(=O)c1c-2n[nH]c1-c1ccc(OC)cc1 [methoxy-N-({[3-(4-methoxyphenyl)-4-oxo-2H,4H-indeno[1,2-c]pyrazol-5-yl]carbamoyl}amino)formamide] |  |  | 16 nM

Continued, values first:

IC50 [1] | IC50 [2] | IC50 ([1]; pH 7.6, 22 °C) | Compound
 |  | 14 nM | COc1ccc(-c2[nH]nc3c2C(=O)c2c(NC(=O)NNC(=O)c4ccccc4OC)cccc2-3)cc1 [2-methoxy-N-({[3-(4-methoxyphenyl)-4-oxo-2H,4H-indeno[1,2-c]pyrazol-5-yl]carbamoyl}amino)benzamide]
 |  | 24 nM | COc1ccc(-c2[nH]nc3c2C(=O)c2c(NC(=O)NNC(=O)c4ccc(O)c(N)c4)cccc2-3)cc1 [3-amino-4-hydroxy-N-({[3-(4-methoxyphenyl)-4-oxo-2H,4H-indeno[1,2-c]pyrazol-5-yl]carbamoyl}amino)benzamide]
13 nM |  |  | COc1ccc(-c2[nH]nc3c2C(=O)c2c(NC(=O)NNC(=O)c4cccc(N)c4)cccc2-3)cc1 [3-amino-N-({[3-(4-methoxyphenyl)-4-oxo-2H,4H-indeno[1,2-c]pyrazol-5-yl]carbamoyl}amino)benzamide]
 | 11 nM | 15 nM | COc1ccc(C(=O)NNC(=O)Nc2cccc3c2C(=O)c2c(-c4ccc(OC)cc4)n[nH]c2-3)cc1 [4-methoxy-N-({[3-(4-methoxyphenyl)-4-oxo-2H,4H-indeno[1,2-c]pyrazol-5-yl]carbamoyl}amino)benzamide]
 |  | 13 nM | COc1ccc(-c2[nH]nc3c2C(=O)c2c(NC(=O)NNC(=O)c4cccc(C)c4)cccc2-3)cc1 [N-({[3-(4-methoxyphenyl)-4-oxo-2H,4H-indeno[1,2-c]pyrazol-5-yl]carbamoyl}amino)-3-methylbenzamide]
 |  | 24 nM | COc1ccc(-c2[nH]nc3c2C(=O)c2c(NC(=O)NNC(=O)c4cccc([N+](=O)[O-])c4)cccc2-3)cc1 [N-({[3-(4-methoxyphenyl)-4-oxo-2H,4H-indeno[1,2-c]pyrazol-5-yl]carbamoyl}amino)-3-nitrobenzamide]
 |  | 24 nM | COc1ccc(-c2[nH]nc3c2C(=O)c2c(NC(=O)NNC(=O)c4ccc(C)cc4)cccc2-3)cc1 [N-({[3-(4-methoxyphenyl)-4-oxo-2H,4H-indeno[1,2-c]pyrazol-5-yl]carbamoyl}amino)-4-methylbenzamide]
12 nM |  |  | COc1ccc(-c2[nH]nc3c2C(=O)c2c(NC(=O)NNC(=O)c4ccccc4)cccc2-3)cc1 [N-({[3-(4-methoxyphenyl)-4-oxo-2H,4H-indeno[1,2-c]pyrazol-5-yl]carbamoyl}amino)benzamide]
35 nM | 13 nM |  | COc1ccc(-c2[nH]nc3c2C(=O)c2c(NC(=O)NNC(=O)c4ccc5ccccc5c4)cccc2-3)cc1 [N-({[3-(4-methoxyphenyl)-4-oxo-2H,4H-indeno[1,2-c]pyrazol-5-yl]carbamoyl}amino)naphthalene-2-carboxamide]
16 nM |  |  | COc1ccc(-c2[nH]nc3c2C(=O)c2c(NC(=O)NNC(=O)c4cccnc4)cccc2-3)cc1 [N-({[3-(4-methoxyphenyl)-4-oxo-2H,4H-indeno[1,2-c]pyrazol-5-yl]carbamoyl}amino)pyridine-3-carboxamide]
12 nM |  |  | COc1ccc(-c2[nH]nc3c2C(=O)c2c(NC(=O)NNC(=O)c4ccncc4)cccc2-3)cc1 [N-({[3-(4-methoxyphenyl)-4-oxo-2H,4H-indeno[1,2-c]pyrazol-5-yl]carbamoyl}amino)pyridine-4-carboxamide]
